The source of these data is BindingDB's records for doi:10.1021/jm00028a008 (1994).

The term Kd denotes a measure of binding affinity in units of concentration. The low end stands for tighter binding, the high end for weaker binding.

The experiment has as its target Oxytocin receptor (Cavia porcellus). Kind of experiment: Inhibition of radioligand [3H]OT binding to oxytocin receptor (OT) in guinea pig myometrium membrane.

Molecule `CCOc1ccc(C[C@H]2NC(=O)CC3(CCCCC3)SSC[C@@H](C(=O)N(C)CC(=O)N[C@@H](CCCN=C(N)N)C(=O)NCC(N)=O)NC(=O)[C@H](CC(N)=O)NC(=O)[C@H](CCC(N)=O)NC(=O)[C@H]([C@@H](C)CC)NC2=O)cc1` [[Mpa1,D-Tyr(OEt)2,Sar7]AVT] displayed a Kd of 15 nM.
With `CN(CC(=O)N[C@@H](CCCNC(=N)N)C(=O)NCC(N)=O)C(=O)[C@@H]1CSSC2(CCCCC2)CC(=O)N[C@@H](Cc2ccccc2)C(=O)N[C@@H](Cc2ccccc2)C(=O)N[C@@H](CCC(N)=O)C(=O)N[C@@H](CC(N)=O)C(=O)N1` [[Mca1,D-Phe2,Sar7]AVP] the figure was 7 nM.
With `CCOc1ccc(C[C@H]2NC(=O)CC3(CCCCC3)SSC[C@@H](C(=O)N(C)CC(=O)N[C@@H](CCCN=C(N)N)C(=O)NCC(N)=O)NC(=O)[C@H](CC(N)=O)NC(=O)[C@H](CCC(N)=O)NC(=O)[C@H](Cc3ccccc3)NC2=O)cc1` [[Mca1,D-Tyr(OEt)2,Sar7]AVP] the figure was 21 nM; with `CC[C@H](C)[C@@H]1NC(=O)[C@@H](Cc2ccc(OC)cc2)NC(=O)CC2(CCCCC2)SSC[C@@H](C(=O)N(C)CC(=O)N[C@@H](CCCN=C(N)N)C(=O)NCC(N)=O)NC(=O)[C@H](CC(N)=O)NC(=O)[C@H](CCC(N)=O)NC1=O` [[Mca1,D-Tyr(OMe)2,Sar7]AVT], 18 nM.
